Data from patent US10526322B2, “Inhibitors of kidney-type glutaminase, GLS-1” (CORNELL UNIVERSITY, priority 2014, dated 2020).
Residue numbers refer to the chain shown, from its start.

Legend:
[1] = biological target: T1, GAC (Mus musculus, UniProt D3Z7P3); test: Real-time GAC enzyme activity assay coupled to glutamate dehydrogenase (NADH fluorescence); format: biochemical
T1 construct: (residues 72-603) was cloned into a pET23a vector; His-tag with thrombin cleavage site (N, cleaved yes); made in house
T1 sequence (D3Z7P3 72-603 isoform D3Z7P3-2): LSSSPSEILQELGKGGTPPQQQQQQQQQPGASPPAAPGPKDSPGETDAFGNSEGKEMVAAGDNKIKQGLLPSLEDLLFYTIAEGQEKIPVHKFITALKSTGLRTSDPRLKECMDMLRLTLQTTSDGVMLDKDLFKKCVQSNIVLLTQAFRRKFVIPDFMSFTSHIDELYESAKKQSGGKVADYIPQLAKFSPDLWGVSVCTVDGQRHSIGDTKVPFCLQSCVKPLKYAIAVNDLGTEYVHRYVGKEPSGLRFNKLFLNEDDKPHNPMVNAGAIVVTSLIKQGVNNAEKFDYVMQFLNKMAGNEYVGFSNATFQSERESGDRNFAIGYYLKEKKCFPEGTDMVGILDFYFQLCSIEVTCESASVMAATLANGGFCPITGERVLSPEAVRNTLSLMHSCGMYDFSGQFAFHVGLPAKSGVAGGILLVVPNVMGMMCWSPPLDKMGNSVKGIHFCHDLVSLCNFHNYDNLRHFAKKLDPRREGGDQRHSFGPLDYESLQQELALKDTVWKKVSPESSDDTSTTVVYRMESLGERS

[2] = biological target: T2, K316E/D391K/R459E GAC mutant (Mus musculus, UniProt D3Z7P3, D391K/K316E/R459E); test: In vitro photo cross linking of SU-22 and purification of the conjugate; format: binding
T2 construct: (residues 72-603) was cloned into a pET23a vector; made in house
T2 sequence (D3Z7P3 72-603 isoform D3Z7P3-2 K316E/D391K/R459E): T1 sequence (D3Z7P3 72-603 isoform D3Z7P3-2) with K245E, D320K, R388E
Procedure: Glutaminase proteins of the WT sequence, or containing the mutations D391K alone, or the mutations K316E/D391K/R459E, were purified as detailed in Example 3 supra. These glutaminase proteins were incubated with increasing concentrations of the compound SU-22, and excited with a hand held UV lamp for 120 seconds. Immediately following UV exposure, samples were loaded onto a 4-20% Tris-Glycine polyacrylamide gel after the addition of SDS-PAGE sample buffer (50 mM Tris-HCl (pH=6.8), 2% SDS, 10% glycerol, 1% β-mercaptoethanol, 12.5 mM EDTA, 0.02% bromophenol blue), and visualized on a UV light box.
Conditions of in vitro cross linking of WT GAC, and the K316E/D391K/R459E GAC mutant were adapted for efficient cross linking and purification of the cross linked protein product. WT GAC and the K316E/D391K/R459E GAC mutant, both containing the N-terminal His-tag, were diluted to a concentration of 100 nM in 20 mM Tris-HCl (pH=8.6) 100 mM NaCl, upon which 10 μM of SU-22 was added. […] The purified cross linked protein was then concentrated using spin columns with a 30 kD molecular weight cutoff and quantified using UV-vis spectroscopy, where the protein was quantified using the A280 (ε280=38,850 M−1 cm−1) and the cross-linked SU-22 using the A350 (ε350=18,900 M−1 cm−1). […]

Row | SMILES | potency of inhibition of GAC activity ([1]; GAC concentration decreased from 50 nM to 5 nM) | inhibition of enzyme activity ([1]; GAC preincubated with inorganic phosphate (50 mM Pi) before 968) | ratio of cross linked SU-22 to protein ([2]; 100 nM K316E/D391K/R459E GAC, 10 μM SU-22, UV, A350/A280) | efficiency of cross linking compared with dimer (D391K) or WT GAC ([2]; UV exposure, SDS-PAGE)
1 | CN(C)c1ccc(C2Nc3ccc4ccccc4c3C3=C2C(=O)CC(C)(C)C3)cc1Br (stereo not shown) [Compound 968] | greater potency | much less effective | – | –
2 | CC1(C)CC(=O)C2=C(C1)c1c(ccc3cc4ccccc4cc13)NC2c1ccc(N=[N+]=[N-])cc1 (stereo not shown) [SU-22] | – | – | 0.78 | more efficient
